Data: US20250297310A1, “HEMATOPOIETIC LOSS OF Y CHROMOSOME LEADS TO CARDIAC FIBROSIS AND DYSFUNCTION AND IS ASSOCIATED WITH DEATH DUE TO HEART FAILURE” (University of Virginia Patent Foundation, priority 2022, published 2025)

Experiments:
[1] = tested on: centromere of the Y chromosome; test: Y chromosome ablation efficiency by FISH analysis of tRFP-positive blood cells; format: cell-based; conditions: tRFP-positive blood cells from reconstituted mice
From the text: Plasmids. Single guide RNAs (sgRNA) targeting the centromere of the Y chromosome (gRNA1, gRNA2) were from a previous report (Adikusuma et al., 2017), and the control gRNA is non-targeting. sgRNA sequences are listed in Table 4. Single stranded sgRNA sequences were annealed and cloned into pLKO.sgRNA.EFS.tRFP following restriction digestion with Esp3I, and successful cloning was confirmed by Sanger sequencing with U6 primer (Table 4). Plasmids were from Addgene (pLKO5.0.sgRNA.EFS.tRFP, plasmid #57823; psPAX2; plasmid #12260; and pMD2.G, plasmid #12259).
Ex vivo genome editing of HSPC. sgRNAs were delivered lentivirally to bone marrow lineage-negative cells obtained from ROSA26Cas9 knock-in mice as described previously (Sano et al., 2019).
Fluorescence in situ hybridization (FISH). […] 200 interphase nuclei were analyzed by two technologists using an Olympus fluorescence microscope (model BX-41).
We constructed a mouse model of hematopoietic mLOY by employing CRISPR/Cas9 gene editing to target repeat DNA sequences that are specific to the centromere of the Y chromosome. […] Two LOY-gRNAs (LOY-gRNA1 and 2) targeting different repeat sequences within the centromere were evaluated for the efficiency of Y chromosome ablation by fluorescent in situ hybridization (FISH) analysis of X and Y chromosome in tRFP-positive blood cells collected from mice reconstituted with bone marrow cells. […]

[2] = Effect of senolytic ABT-263 on lifespan and kidney function in aging hematopoietic Uty-KO mice; format: in vivo
From the text: FIGS. 28A-28C. The effect of the senolytic ABT-263 on lifespan and kidney function in aging hematopoietic Uty-KO mice. FIG. 28A. Exemplary model of ABT-263 mice. FIGS. 28B and 28C.
FIGS. 28A-28C show the effect of the senolytic ABT-263 on lifespan and kidney function in aging hematopoietic Uty-KO mice, using an exemplary model of ABT-263 mice.

LOY-gRNA1: guide RNA targeting a repeat sequence in the centromere of the Y chromosome, SEQ ID NOs: 1-2 (guide 1 CACCGGAGUUAAUAUAAAAAACA; guide 2 AAACUGUUUUUUAUAUUAACUCC; listed as RNA, chemistry not fully specified)
Y chromosome ablation efficiency [1]: approximately 95%

CC1(C)CCC(c2ccc(Cl)cc2)=C(CN2CCN(c3ccc(C(=O)NS(=O)(=O)c4ccc(N[C@H](CCN5CCOCC5)CSc5ccccc5)c(S(=O)(=O)C(F)(F)F)c4)cc3)CC2)C1 [ABT-263]
progression of renal dysfunction [2]: suppressed the progression of renal dysfunction | survival [2]: promoted survival
